# Test results published in patent publication US20170197979A1, “BENZOTHIADIAZOLAMINES” (BAYER PHARMA AKTIENGESELLSCHAFT, priority 2014, published 2017).
# Where two headings read alike, the source gives them in different places.
# Biological target: T1, human full-length MKNK1 (Homo sapiens, UniProt Q9BUB5, T385D)
# T1 construct: GST (N); purchased Carna Biosciences 02-145; host or cells: insect cells (baculovirus expression system)
# Assay: MKNK1 kinase high ATP assay (TR-FRET)
# Format: biochemical
# Protocol: MKNK1 Kinase High ATP Assay
# MKNK1-inhibitory activity at high ATP of compounds of the present invention after their preincubation with MKNK1 was quantified employing the TR-FRET-based MKNK1 high ATP assay as described in the following paragraphs.
# A recombinant fusion protein of Glutathione-S-Transferase (GST, N-terminally) and human full-length MKNK1 (amino acids 1-424 and T344D of accession number BAA 19885.1), expressed in insect cells using baculovirus expression system and purified via glutathione sepharose affinity chromatography, was purchased from Carna Biosciences (product no 02-145) and used as enzyme. As substrate for the kinase reaction the biotinylated peptide biotin-Ahx-IKKRKLTRRKSLKG (C-terminus in amide form) was used, which can be purchased e.g. from the company Biosyntan (Berlin-Buch, Germany).
# For the assay 50 nL of a 100 fold concentrated solution of the test compound in DMSO was pipetted into a black low volume 384 well microtiter plate (Greiner Bio-One, Frickenhausen, Germany), 2 μL of a solution of MKNK1 in aqueous assay buffer [50 mM HEPES pH 7.5, 5 mM MgCl2, 1.0 mM dithiothreitol, 0.005% (v/v) Nonidet-P40 (Sigma)] was added and the mixture was incubated for 15 min at 22° C. to allow pre-binding of the test compounds to the enzyme before the start of the kinase reaction. Then the kinase reaction was started by the addition of 3 μL of a solution of adenosine-tri-phosphate (ATP, 3.3 mM=>final conc. in the 5 μL assay volume is 2 mM) and substrate (0.1 μM=>final conc. in the 5 μL assay volume is 0.06 μM) in assay buffer and the resulting mixture was incubated for a reaction time of 30 min at 22° C. The concentration of MKNK1 was adjusted depending of the activity of the enzyme lot and was chosen appropriate to have the assay in the linear range, typical concentrations were in the range of 0.003 μg/mL. The reaction was stopped by the addition of 5 μL of a solution of TR-FRET detection reagents (5 nM streptavidine-XL665 [Cisbio Bioassays, Codolet, France] and 1 nM anti-ribosomal protein S6 (pSer236)-antibody from Invitrogen [#44921G] and 1 nM LANCE EU-W1024 labeled ProteinG [Perkin-Elmer, product no. AD0071]) in an aqueous EDTA-solution (100 mM EDTA, 0.1% (w/v) bovine serum albumin in 50 mM HEPES pH 7.5).
# The resulting mixture was incubated for 1 h at 22° C. to allow the formation of complex between the phosphorylated biotinylated peptide and the detection reagents. Subsequently the amount of phosphorylated substrate was evaluated by measurement of the resonance energy transfer from the Eu-chelate to the streptavidine-XL. Therefore, the fluorescence emissions at 620 nm and 665 nm after excitation at 350 nm were measured in a TR-FRET reader, e.g. a Rubystar (BMG Labtechnologies, Offenburg, Germany) or a Viewlux (Perkin-Elmer). The ratio of the emissions at 665 nm and at […] was taken as the measure for the amount of phosphorylated substrate. The data were normalised (enzyme reaction without inhibitor=0% inhibition, all other assay components but no enzyme=100% inhibition).
# [1] = TR-FRET, high ATP (2 mM final), 15 min preincubation with enzyme, GST-MKNK1 (T344D), read-out: MKNK1 IC50
# T1 sequence (Q9BUB5 1-424 isoform Q9BUB5-2 T344D): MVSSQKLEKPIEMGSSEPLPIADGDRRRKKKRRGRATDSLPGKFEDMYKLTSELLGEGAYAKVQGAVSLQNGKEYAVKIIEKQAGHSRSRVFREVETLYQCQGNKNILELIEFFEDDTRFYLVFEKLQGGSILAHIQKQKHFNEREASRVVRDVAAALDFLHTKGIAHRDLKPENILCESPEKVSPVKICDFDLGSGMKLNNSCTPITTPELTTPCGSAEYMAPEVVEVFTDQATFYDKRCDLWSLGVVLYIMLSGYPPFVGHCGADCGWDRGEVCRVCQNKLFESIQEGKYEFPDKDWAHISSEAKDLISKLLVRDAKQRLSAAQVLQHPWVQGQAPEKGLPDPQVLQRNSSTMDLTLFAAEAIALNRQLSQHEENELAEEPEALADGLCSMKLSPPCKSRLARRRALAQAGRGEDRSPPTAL
Structure (SMILES),IC50 [1] [nM],IC50 [nM]
"CN(C)C(=O)[C@H]1CCc2c(sc3ncnc(Nc4ccc5nnsc5c4)c23)C1 [Example 1, (7S)-4-(1,2,3-Benzothiadiazol-6-ylamino)-N,N-dimethyl-5,6,7,8-tetrahydro[1]benzothieno[2,3-d]pyrimidine-7-carboxamide]",16,
"COCCN(C)C(=O)[C@H]1CCc2c(sc3ncnc(Nc4ccc5nnsc5c4)c23)C1 [Example 2, (7S)-4-(1,2,3-Benzothiadiazol-6-ylamino)-N-(2-methoxyethyl)-N-methyl-5,6,7,8-tetrahydro[1]benzothieno[2,3-d]pyrimidine-7-carboxamide]",9.4,
"C[C@@H]1CN(C(=O)[C@H]2CCc3c(sc4ncnc(Nc5ccc6nnsc6c5)c34)C2)C[C@H](C)O1 [Example 3, [(7S)-4-(1,2,3-Benzothiadiazol-6-ylamino)-5,6,7,8-tetrahydro[1]benzothieno[2,3-d]pyrimidin-7-yl][(2R,6S)-2,6-dimethylmorpholin-4-yl]methanone]",13,
"C[C@@H]1COCCN1C(=O)[C@H]1CCc2c(sc3ncnc(Nc4ccc5nnsc5c4)c23)C1 [Example 4, [(7S)-4-(1,2,3-Benzothiadiazol-6-ylamino)-5,6,7,8-tetrahydro[1]benzothieno[2,3-d]pyrimidin-7-yl][(3R)-3-methylmorpholin-4-yl]methanone]",11,
"C[C@H]1COCCN1C(=O)[C@H]1CCc2c(sc3ncnc(Nc4ccc5nnsc5c4)c23)C1 [Example 5, [(7S)-4-(1,2,3-Benzothiadiazol-6-ylamino)-5,6,7,8-tetrahydro[1]benzothieno[2,3-d]pyrimidin-7-yl][(3S)-3-methylmorpholin-4-yl]methanone]",12,
"O=C([C@H]1CCc2c(sc3ncnc(Nc4ccc5nnsc5c4)c23)C1)N1CCOCC1 [Example 6, [(7S)-4-(1,2,3-Benzothiadiazol-6-ylamino)-5,6,7,8-tetrahydro[1]benzothieno[2,3-d]pyrimidin-7-yl](morpholin-4-yl)methanone]",18,
"C[C@@H]1COC[C@H](C)N1C(=O)[C@H]1CCc2c(sc3ncnc(Nc4ccc5nnsc5c4)c23)C1 [Example 7, [(7S)-4-(1,2,3-Benzothiadiazol-6-ylamino)-5,6,7,8-tetrahydro[1]benzothieno[2,3-d]pyrimidin-7-yl][(3R,5S)-3,5-dimethylmorpholin-4-yl]methanone]",5.8,
"C[C@@H]1CN(C(=O)[C@H]2CCc3c(sc4ncnc(Nc5ccc6nnsc6c5)c34)C2)C[C@@H](C)O1 [Example 8, [(7S)-4-(1,2,3-Benzothiadiazol-6-ylamino)-5,6,7,8-tetrahydro[1]benzothieno[2,3-d]pyrimidin-7-yl][(2R,6R)-2,6-dimethylmorpholin-4-yl]methanone]",6.4,
"C[C@@H]1COC[C@@H](C)N1C(=O)[C@H]1CCc2c(sc3ncnc(Nc4ccc5nnsc5c4)c23)C1 [Example 9, [(7S)-4-(1,2,3-Benzothiadiazol-6-ylamino)-5,6,7,8-tetrahydro[1]benzothieno[2,3-d]pyrimidin-7-yl][(3R,5R)-3,5-dimethylmorpholin-4-yl]methanone]",5.4,
"C[C@H]1CN(C(=O)[C@H]2CCc3c(sc4ncnc(Nc5ccc6nnsc6c5)c34)C2)C[C@H](C)O1 [Example 10, [(7S)-4-(1,2,3-Benzothiadiazol-6-ylamino)-5,6,7,8-tetrahydro[1]benzothieno[2,3-d]pyrimidin-7-yl][(2S,6S)-2,6-dimethylmorpholin-4-yl]methanone]",5,
"CN(C(=O)[C@H]1CCc2c(sc3ncnc(Nc4ccc5nnsc5c4)c23)C1)S(C)(=O)=O [Example 11, (7S)-4-(1,2,3-Benzothiadiazol-6-ylamino)-N-methyl-N-(methylsulfonyl)-5,6,7,8-tetrahydro[1]benzothieno[2,3-d]pyrimidine-7-carboxamide]",12,
"CN(C)CCN1CCN(C(=O)[C@H]2CCc3c(sc4ncnc(Nc5ccc6nnsc6c5)c34)C2)CC1 [Example 12, [(7S)-4-(1,2,3-Benzothiadiazol-6-ylamino)-5,6,7,8-tetrahydro[1]benzothieno[2,3-d]pyrimidin-7-yl]{4-[2-(dimethylamino)ethyl]piperazin-1-yl}methanone]",6.4,
"CN(C)[C@H]1CCN(C(=O)[C@H]2CCc3c(sc4ncnc(Nc5ccc6nnsc6c5)c34)C2)C1 [Example 13, [(7S)-4-(1,2,3-Benzothiadiazol-6-ylamino)-5,6,7,8-tetrahydro[1]benzothieno[2,3-d]pyrimidin-7-yl][(3S)-3-(dimethylamino)pyrrolidin-1-yl]methanone]",6.1,
"CN(C)C1CN(C(=O)[C@H]2CCc3c(sc4ncnc(Nc5ccc6nnsc6c5)c34)C2)C1 [Example 14, [(7S)-4-(1,2,3-Benzothiadiazol-6-ylamino)-5,6,7,8-tetrahydro[1]benzothieno[2,3-d]pyrimidin-7-yl][3-(dimethylamino)azetidin-1-yl]methanone]",26,
"CN(C)C1CCN(C(=O)[C@H]2CCc3c(sc4ncnc(Nc5ccc6nnsc6c5)c34)C2)CC1 [Example 15, [(7S)-4-(1,2,3-Benzothiadiazol-6-ylamino)-5,6,7,8-tetrahydro[1]benzothieno[2,3-d]pyrimidin-7-yl][4-(dimethylamino)piperidin-1-yl]methanone]",10,
"O=C1CCN(C(=O)[C@H]2CCc3c(sc4ncnc(Nc5ccc6nnsc6c5)c34)C2)CC1 [Example 16, 1-{[(7S)-4-(1,2,3-Benzothiadiazol-6-ylamino)-5,6,7,8-tetrahydro[1]benzothieno[2,3-d]pyrimidin-7-yl]carbonyl}piperidin-4-one]",,15
"O=C([C@H]1CCc2c(sc3ncnc(Nc4ccc5nnsc5c4)c23)C1)N1CCC(F)(F)C1 [Example 17, [(7S)-4-(1,2,3-Benzothiadiazol-6-ylamino)-5,6,7,8-tetrahydro[1]benzothieno[2,3-d]pyrimidin-7-yl](3,3-difluoropyrrolidin-1-yl)methanone]",11,
"O=C([C@H]1CCc2c(sc3ncnc(Nc4ccc5nnsc5c4)c23)C1)N1C[C@@H]2C[C@H]1CO2 [Example 18, [(7S)-4-(1,2,3-Benzothiadiazol-6-ylamino)-5,6,7,8-tetrahydro[1]benzothieno[2,3-d]pyrimidin-7-yl][(1S,4S)-2-oxa-5-azabicyclo[2.2.1]hept-5-yl]methanone]",14,
"CN1C[C@@H]2C[C@H]1CN2C(=O)[C@H]1CCc2c(sc3ncnc(Nc4ccc5nnsc5c4)c23)C1 [Example 19, [(7S)-4-(1,2,3-Benzothiadiazol-6-ylamino)-5,6,7,8-tetrahydro[1]benzothieno[2,3-d]pyrimidin-7-yl][(1S,4S)-5-methyl-2,5-diazabicyclo[2.2.1]hept-2-yl]methanone]",20,
"O=C([C@H]1CCc2c(sc3ncnc(Nc4ccc5nnsc5c4)c23)C1)N1CC2(COC2)C1 [Example 20, [(7S)-4-(1,2,3-Benzothiadiazol-6-ylamino)-5,6,7,8-tetrahydro[1]benzothieno[2,3-d]pyrimidin-7-yl](2-oxa-6-azaspiro[3.3]hept-6-yl)methanone]",16,
"CN(C)CCN(C)C1CCN(C(=O)[C@H]2CCc3c(sc4ncnc(Nc5ccc6nnsc6c5)c34)C2)CC1 [Example 21, [(7S)-4-(1,2,3-Benzothiadiazol-6-ylamino)-5,6,7,8-tetrahydro[1]benzothieno[2,3-d]pyrimidin-7-yl](4-{[2-(dimethylamino)ethyl](methyl)amino}piperidin-1-yl)methanone]",1.3,
